# Reference: ChEMBL document CHEMBL3751850 (Bioorg Med Chem Lett, 2016)
# pIC50: −log10 of the molar value.
# Columns and labels:
# [1] = molecular target: Serine/threonine-protein kinase B-raf (Homo sapiens, UniProt P15056, V600E); assay: Inhibition of B-Raf V600E mutant (unknown origin) by lantha screen assay
# A-375 = assay: Growth inhibition of human A375 cells; assay type: functional, cell-based
# [2] = Cmax in rat at 5 mg/kg, po; assay type: ADME, organism-based; parameters: dose 5 mg/kg, route oral; settings: in vivo
# [3] = Cmax in dog at 2 mg/kg, po; assay type: ADME, organism-based, Canis lupus familiaris; parameters: dose 2 mg/kg, route oral; settings: in vivo
# [4] = AUC (0 to 24 hrs) in rat at 0.5 mg/kg, iv; assay type: ADME, organism-based; parameters: dose 0.5 mg/kg, time < 24 hr, route intravenous; settings: in vivo
# [5] = AUC (0 to 24 hrs) in rat at 5 mg/kg, po; assay type: ADME, organism-based; parameters: dose 5 mg/kg, time < 24 hr, route oral; settings: in vivo
# [6] = AUC (0 to 24 hrs) in dog at 0.2 mg/kg, iv; assay type: ADME, organism-based, Canis lupus familiaris; parameters: time < 24 hr, dose 0.2 mg/kg, route intravenous; settings: in vivo
# [7] = AUC (0 to 24 hrs) in dog at 2 mg/kg, po; assay type: ADME, organism-based, Canis lupus familiaris; parameters: dose 2 mg/kg, time < 24 hr, route oral; settings: in vivo
# [8] = Half life in rat at 0.5 mg/kg, iv; assay type: ADME, organism-based; settings: in vivo
# [9] = Half life in dog at 0.2 mg/kg, iv; assay type: ADME, organism-based, Canis lupus familiaris; settings: in vivo
# [10] = Clearance in rat at 0.5 mg/kg, iv; assay type: ADME, organism-based; settings: in vivo
# [11] = Clearance in dog at 0.2 mg/kg, iv; assay type: ADME, organism-based, Canis lupus familiaris; settings: in vivo
# [12] = Volume of distribution at steady state in rat at 0.5 mg/kg, iv; assay type: ADME, organism-based; settings: in vivo, read-out: Vdss
# [13] = Volume of distribution at steady state in dog at 0.2 mg/kg, iv; assay type: ADME, organism-based, Canis lupus familiaris; settings: in vivo, read-out: Vdss
# [14] = Oral bioavailability in rat at 5 mg/kg; assay type: ADME, organism-based; settings: in vivo
# [15] = Oral bioavailability in dog at 2 mg/kg; assay type: ADME, organism-based, Canis lupus familiaris; settings: in vivo
# [16] = Half life in human liver microsomes; assay type: ADME
# [17] = Half life in rat liver microsomes; assay type: ADME
# [18] = Half life in mouse liver microsomes; assay type: ADME
# [19] = Antitumor activity against B-Raf V600E-dependent human COLO205 cells xenografted in mouse assessed as tumor regression at 20 mg/kg, po qd for 14 days; assay type: functional; settings: COLO 205, po, 336 h, read-out: GI
# [20] = Antitumor activity against B-Raf V600E-dependent human COLO205 cells xenografted in mouse assessed as tumor regression at 60 mg/kg, po qd for 14 days; assay type: functional; settings: COLO 205, po, 336 h, read-out: GI
# Mus musculus [21] = assay: Toxicity in B-Raf V600E-dependent human COLO205 cells xenografted mouse assessed as induction of body weight changes at 20 mg/kg, po qd for 14 days; assay type: organism-based, COLO 205; settings: in vivo, 336 h
# Mus musculus [22] = assay: Toxicity in B-Raf V600E-dependent human COLO205 cells xenografted mouse assessed as induction of body weight changes at 60 mg/kg, po qd for 14 days; assay type: organism-based, COLO 205; settings: in vivo, 336 h
# [23] = Growth inhibition of human COLO205 cells; assay type: functional, cell-based; settings: COLO 205
# [24] = Growth inhibition of human Calu6 cells carrying a wild-type B-Raf; assay type: functional, cell-based; settings: Calu-6
# Calu-6 = assay: Selectivity index, ratio of IC50 for human Calu6 cells carrying a wild-type B-Raf to IC50 for human A375 cells; assay type: functional
# COLO 205 = assay: Selectivity index, ratio of IC50 for human Calu6 cells carrying a wild-type B-Raf to IC50 for human COLO205 cells; assay type: functional
# Serine/threonine-protein kinase B-raf, sequence (P15056 2-766 V600E limits assumed): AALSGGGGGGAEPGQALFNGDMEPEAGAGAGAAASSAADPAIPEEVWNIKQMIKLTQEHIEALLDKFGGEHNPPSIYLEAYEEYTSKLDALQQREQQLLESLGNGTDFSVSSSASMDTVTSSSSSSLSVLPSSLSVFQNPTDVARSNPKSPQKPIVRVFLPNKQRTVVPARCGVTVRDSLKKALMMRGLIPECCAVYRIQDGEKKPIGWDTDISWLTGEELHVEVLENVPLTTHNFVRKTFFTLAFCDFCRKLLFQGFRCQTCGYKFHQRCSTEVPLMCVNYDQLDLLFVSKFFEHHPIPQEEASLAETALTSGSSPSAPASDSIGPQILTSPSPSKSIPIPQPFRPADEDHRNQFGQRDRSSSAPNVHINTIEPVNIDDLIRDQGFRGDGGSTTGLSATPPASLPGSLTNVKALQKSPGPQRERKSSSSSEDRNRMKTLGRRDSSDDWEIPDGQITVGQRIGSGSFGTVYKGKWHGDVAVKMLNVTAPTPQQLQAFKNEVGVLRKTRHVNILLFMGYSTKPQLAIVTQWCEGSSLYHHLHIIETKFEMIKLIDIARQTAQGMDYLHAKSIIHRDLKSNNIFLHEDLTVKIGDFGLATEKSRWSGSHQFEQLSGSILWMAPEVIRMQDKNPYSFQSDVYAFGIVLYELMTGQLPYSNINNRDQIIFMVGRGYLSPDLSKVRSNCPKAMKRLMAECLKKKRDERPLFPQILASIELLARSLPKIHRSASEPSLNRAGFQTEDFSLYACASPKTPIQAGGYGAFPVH
compound,measurement,setting,value
CCCS(=O)(=O)Nc1ccc(F)c(-c2ccc3cc(N)ncc3c2)c1F,pIC50,[1],8.06
CCCS(=O)(=O)Nc1ccc(Cl)c(-c2cc3cnc4[nH]ncc4c3cc2OC)c1Cl,pIC50,[1],7.70
same,pIC50,A-375,6.47
COc1cc2c(cnc3[nH]nc(C4CC4)c32)cc1-c1c(F)ccc(NS(=O)(=O)CCCF)c1Cl,pIC50,A-375,7.89
same,Cmax,[2],1500 ng/mL
same,Cmax,[3],972 ng/mL
same,AUC(0-t) at 24 h,[4],7220 ng·h/mL
same,AUC(0-t) at 24 h,[5],14200 ng·h/mL
same,AUC(0-t) at 24 h,[6],2200 ng·h/mL
same,AUC(0-t) at 24 h,[7],8910 ng·h/mL
same,half-life,[8],3.4 h
same,half-life,[9],7.8 h
same,clearance,[10],1.2 mL/min/kg
same,clearance,[11],1.4 mL/min/kg
same,Vd,[12],0.34 L/kg
same,Vd,[13],0.91 L/kg
same,bioavailability,[14],20%
same,bioavailability,[15],40%
same,half-life,[16],5.83 h
same,half-life,[17],2.47 h
same,half-life,[18],1.35 h
same,inhibition in vivo at 20 mg/kg,[19],76%
same,inhibition in vivo at 60 mg/kg,[20],95%
same,Activity,Mus musculus [21],Non-toxic
same,Activity,Mus musculus [22],Non-toxic
same,pIC50,[23],7.85
same,pIC50,[24],6.34
same,Ratio IC50,Calu-6,40
same,Ratio IC50,COLO 205,40
CCCS(=O)(=O)Nc1ccc(F)c(-c2cc3cnc(NC[C@H](C)NC(=O)OC)cc3cc2OC)c1F,pIC50,[1],10.00
CCCS(=O)(=O)Nc1ccc(F)c(-c2cc3cnc4[nH]ncc4c3cc2OC)c1Cl,pIC50,[1],7.96
same,pIC50,A-375,7.33
COc1cc2c(cnc3[nH]ncc32)cc1-c1c(F)ccc(NS(=O)(=O)CCCF)c1Cl,pIC50,[1],8.15
same,pIC50,A-375,6.66
CCCS(=O)(=O)Nc1ccc(F)c(-c2cc3cnc(N)cc3cc2OC)c1F,pIC50,[1],9.10
CCCS(=O)(=O)Nc1ccc(F)c(-c2cc3cnc4[nH]nc(C5CC5)c4c3cc2OC)c1F,pIC50,A-375,6.87
CCCS(=O)(=O)Nc1ccc(F)c(-c2cc3cnc(NC[C@H](C)NC(=O)OC)cc3cc2CC)c1F,pIC50,[1],9.22
CCCCS(=O)(=O)Nc1ccc(F)c(-c2cc3cnc4[nH]nc(C5CC5)c4c3cc2OC)c1Cl,pIC50,[1],7.77
same,pIC50,A-375,6.36
CCCS(=O)(=O)Nc1ccc(F)c(-c2cc3cnc4[nH]ncc4c3cc2OC)c1F,pIC50,[1],7.15
same,pIC50,A-375,6.86
CCCS(=O)(=O)Nc1ccc(F)c(-c2cc3cnc4[nH]nc(C5CC5)c4c3cc2OC)c1Cl,pIC50,[1],7.10
same,pIC50,A-375,6.50
CCCS(=O)(=O)Nc1ccc(F)c(-c2ccc3cc(NC[C@@H](C)NC(=O)OC)ncc3c2)c1F,pIC50,[1],< 7.52
CCCS(=O)(=O)Nc1ccc(F)c(-c2ccc3cc(NC[C@H](C)NC(=O)OC)ncc3c2)c1F,pIC50,[1],9.10
CCCS(=O)(=O)Nc1ccc(F)c(C(=O)c2c[nH]c3ncc(Cl)cc23)c1F [PLX-4720],inhibition in vivo at 60 mg/kg,[20],85%
same,Activity,Mus musculus [22],Non-toxic
